Type in all cases: cell-based
One experiment has as its target T1, S1P-4 (Homo sapiens, UniProt O95977).
T1 construct: expressed in transfected cells; host or cells: CHO cells (G418 selection)
T1 sequence (O95977 1-384): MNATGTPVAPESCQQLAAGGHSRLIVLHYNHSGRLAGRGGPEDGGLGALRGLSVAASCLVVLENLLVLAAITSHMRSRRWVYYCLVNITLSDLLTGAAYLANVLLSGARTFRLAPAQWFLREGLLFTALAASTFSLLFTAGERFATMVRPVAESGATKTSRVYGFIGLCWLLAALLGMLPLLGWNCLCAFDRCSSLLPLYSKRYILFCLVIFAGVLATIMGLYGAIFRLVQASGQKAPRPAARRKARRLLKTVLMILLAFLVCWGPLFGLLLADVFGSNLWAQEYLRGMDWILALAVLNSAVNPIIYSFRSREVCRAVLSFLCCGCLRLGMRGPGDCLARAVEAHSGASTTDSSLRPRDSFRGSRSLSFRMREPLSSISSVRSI
The experiment is described as follows: FLIPR calcium flux assay, S1P-4. The settings on record: agonist activity. (In general: Calcium flux is commonly read through the fluorescence of an indicator in the cells.)

The next experiment addresses T2, S1P5 (Homo sapiens, UniProt Q9H228).
T2 construct: expressed in transfected cells; host or cells: CHO cells (G418 selection)
The experiment in a line: FLIPR calcium flux assay, CHO cells expressing S1P5. The settings on record: agonist activity; read-out: EC50 for S1P-5. The method, then: (§1) A.2 FLIPR Calcium Flux Assay
(§2) Compounds of the invention are tested for agonist activity on S1P1, S1P3, S1P5, and S1P6 with a FLIPR calcium flux assay. Briefly, CHO cells expressing an S1P receptor are maintained in F-12K medium (ATCC), containing 5% FBS, with 500 ug/ml of G418. Prior to the assay, the cells are plated in 384 black clear bottom plates at the density of 10,000 cells/well/25 µl in the medium of F-12K containing 1% FBS. The second day, the cells are washed three times (25 μl/each) with washing buffer. About 25 μl of dye are added to each well and incubated for 1 hour at 37° C. and 5% CO2. The cells are then washed four times with washing buffer (25 μl/each). The calcium flux is assayed after adding 25 μl of SEW2871 (published by Rosen et al., used as reference) solution to each well of cells. The same assay is performed with cells expressing each of the different S1P receptors. Titration in the FLIPR calcium flux assay is recorded over a 3-minute interval, and quantitated as maximal peak height percentage response relative to S1P-1 activation. The compounds of the invention are active in this assay at a concentration of from 10^−12 and […].

The next experiment concerns the target T3, S1P-2 (Homo sapiens, UniProt O95136).
T3 construct: expressed in transfected cells; host or cells: CHO cells (G418 selection)
The experiment in a line: FLIPR calcium flux assay, S1P-2. Conditions: agonist activity. The procedure: as §1, §2

A further experiment deals with T4, S1P3 (Homo sapiens, UniProt Q99500).
T4 construct: expressed in transfected cells; host or cells: CHO cells (G418 selection)
The experiment is described as follows: FLIPR calcium flux assay, CHO cells expressing S1P3. Conditions: agonist activity; read-out: EC50 for S1P-3. The procedure: as §1, §2

In a further experiment the target is T5, S1P1 (Homo sapiens, UniProt P21453).
T5 construct: expressed in transfected cells; host or cells: CHO cells (G418 selection)
The experiment in a line: FLIPR calcium flux assay, CHO cells expressing S1P1. The settings on record: agonist activity; read-out: EC50 for S1P-1. The method, then: as §1, §2

T4 sequence (Q99500 whole entry): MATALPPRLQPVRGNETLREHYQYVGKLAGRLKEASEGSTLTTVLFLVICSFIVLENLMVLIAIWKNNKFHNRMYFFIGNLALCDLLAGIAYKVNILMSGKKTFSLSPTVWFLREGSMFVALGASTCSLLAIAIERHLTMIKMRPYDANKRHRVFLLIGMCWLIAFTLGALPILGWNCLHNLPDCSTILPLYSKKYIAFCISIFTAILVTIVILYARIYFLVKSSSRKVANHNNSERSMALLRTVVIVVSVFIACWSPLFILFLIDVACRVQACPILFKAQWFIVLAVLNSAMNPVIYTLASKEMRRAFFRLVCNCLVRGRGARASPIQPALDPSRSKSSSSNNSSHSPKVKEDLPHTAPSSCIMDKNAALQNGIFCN
T3 sequence (O95136 whole entry): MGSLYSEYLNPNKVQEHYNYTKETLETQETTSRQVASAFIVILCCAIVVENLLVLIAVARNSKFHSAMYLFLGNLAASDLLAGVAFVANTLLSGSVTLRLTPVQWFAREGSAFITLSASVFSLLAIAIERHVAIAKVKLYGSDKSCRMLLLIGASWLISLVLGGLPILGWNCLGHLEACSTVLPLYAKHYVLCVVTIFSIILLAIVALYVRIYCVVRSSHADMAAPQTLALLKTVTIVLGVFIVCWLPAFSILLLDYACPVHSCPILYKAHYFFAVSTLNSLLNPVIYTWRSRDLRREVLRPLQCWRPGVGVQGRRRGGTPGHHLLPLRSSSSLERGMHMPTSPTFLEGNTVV
T5 sequence (P21453 whole entry): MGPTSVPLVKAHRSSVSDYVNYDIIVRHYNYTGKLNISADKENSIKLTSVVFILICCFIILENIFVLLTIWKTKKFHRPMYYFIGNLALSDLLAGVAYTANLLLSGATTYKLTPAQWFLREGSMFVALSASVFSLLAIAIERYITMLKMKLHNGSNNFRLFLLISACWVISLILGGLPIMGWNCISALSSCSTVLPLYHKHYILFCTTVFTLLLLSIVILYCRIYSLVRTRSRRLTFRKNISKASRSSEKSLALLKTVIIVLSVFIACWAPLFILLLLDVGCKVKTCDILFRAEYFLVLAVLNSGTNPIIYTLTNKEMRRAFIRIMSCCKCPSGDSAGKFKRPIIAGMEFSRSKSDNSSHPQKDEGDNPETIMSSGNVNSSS
T2 sequence (Q9H228 whole entry): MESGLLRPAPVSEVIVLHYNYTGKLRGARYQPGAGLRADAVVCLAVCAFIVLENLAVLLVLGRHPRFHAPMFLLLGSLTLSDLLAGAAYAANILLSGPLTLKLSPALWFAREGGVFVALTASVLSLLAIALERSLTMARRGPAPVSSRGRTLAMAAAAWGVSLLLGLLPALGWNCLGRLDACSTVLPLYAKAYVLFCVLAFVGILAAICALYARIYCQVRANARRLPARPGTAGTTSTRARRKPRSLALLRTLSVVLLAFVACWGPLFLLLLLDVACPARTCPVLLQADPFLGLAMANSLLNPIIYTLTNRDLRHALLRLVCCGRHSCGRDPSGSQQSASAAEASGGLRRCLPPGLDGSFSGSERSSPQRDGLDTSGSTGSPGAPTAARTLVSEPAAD

Broadly, the EC50 is the midpoint of the concentration-response curve. `CCCc1c(OC)ccc2cc(C(=O)Nc3ccc(CN)cc3)c(=O)oc12` [Example 1, 7-Methoxy-2-oxo-8-propyl-2H-chromene-3-carboxylic acid (4-aminomethyl-phenyl)-amide]: the EC50 on S1P-4 is over 1 µM; at S1P5 it was over 1 µM; at S1P-2, over 1 µM; on S1P3 it was over 1 µM; on S1P1, 0.0087 µM.

Values taken from patent US20090318546A1, “Chromen-2-One Derivatives” (NOVARTIS AG, priority 2006, published 2009).
